Measured values: patent US20240043456A1 (Unity Biotechnology, Inc., priority 2020, published 2024)

Legend:
[1] = Chemical stability of free acid and salts during salt preparation; type: physicochemical
[2] = 12-month stability test, HPLC; type: physicochemical; set-up: HPLC result, RRT 1.09: unit not given beside the values; settings: for HPLC result, RRT 0.86 / HPLC result, RRT 0.94 / HPLC result, RRT 1 / HPLC result, RRT 1.05 / HPLC result, RRT 1.09 / HPLC result, RRT 1.15 / HPLC result, RRT 1.27 / HPLC result, RRT 1.29 / HPLC result, RRT 1.65: 2-8° C.

Nc1cc(Cl)nc(C(=O)[O-])c1Cl.[K+] [potassium salt]
unstable: stability of the salt [1]

(R)-5-(4-chlorophenyl)-1-isopropyl-2-methyl-4-(3-(4-(4-((4-((1-(phenylthio)-4-(4-((phosphonooxy)methyl)piperidin-1-yl)butan-2-yl)amino)-3-((trifluoromethyl)sulfonyl)phenyl)sulfonamido)phenyl)piperazin-1-yl)phenyl)-1H-pyrrole-3-carboxylic acid meglumine salt
0.44: HPLC result, RRT 1.29 ([2]; 6 months)
99.4: HPLC result, RRT 1 ([2]; 1 month) | HPLC result, RRT 1 ([2]; 2 months) | HPLC result, RRT 1 ([2]; 2 weeks) | HPLC result, RRT 1 ([2]; 12 months)
0.1: HPLC result, RRT 1.27 ([2]; 9 months)
0.22: HPLC result, RRT 1.29 ([2]; T0)
<0.05: HPLC result, RRT 1.05 ([2]; 1 month) | HPLC result, RRT 1.15 ([2]; 1 month) | HPLC result, RRT 1.27 ([2]; 1 month) | HPLC result, RRT 1.05 ([2]; 2 months) | HPLC result, RRT 1.15 ([2]; 2 months) | HPLC result, RRT 1.27 ([2]; 2 months) | HPLC result, RRT 0.86 ([2]; 2 weeks) | HPLC result, RRT 1.05 ([2]; 2 weeks) | HPLC result, RRT 1.15 ([2]; 2 weeks) | HPLC result, RRT 1.27 ([2]; 2 weeks) | HPLC result, RRT 1.65 ([2]; 2 weeks) | HPLC result, RRT 0.94 ([2]; 3 months) | HPLC result, RRT 1.05 ([2]; 3 months) | HPLC result, RRT 1.15 ([2]; 3 months) | HPLC result, RRT 1.27 ([2]; 3 months) | HPLC result, RRT 1.65 ([2]; 3 months) | HPLC result, RRT 1.15 ([2]; 6 months) | HPLC result, RRT 1.27 ([2]; 6 months) | HPLC result, RRT 1.65 ([2]; 6 months) | HPLC result, RRT 1.15 ([2]; 9 months) | HPLC result, RRT 1.65 ([2]; 9 months) | HPLC result, RRT 1.05 ([2]; 12 months) | HPLC result, RRT 1.09 ([2]; 12 months) | HPLC result, RRT 1.05 ([2]; T0) | HPLC result, RRT 1.15 ([2]; T0) | HPLC result, RRT 1.27 ([2]; T0) | HPLC result, RRT 1.65 ([2]; T0)
0.08: HPLC result, RRT 1.09 ([2]; 2 months) | HPLC result, RRT 1.09 ([2]; 3 months) | HPLC result, RRT 0.86 ([2]; 9 months) | HPLC result, RRT 0.86 ([2]; 12 months)
0.41: HPLC result, RRT 1.29 ([2]; 9 months)
0.09: HPLC result, RRT 0.86 ([2]; 3 months) | HPLC result, RRT 1.09 ([2]; 9 months) | HPLC result, RRT 1.27 ([2]; 12 months)
chemically stable: chemical stability ([1]; under experimental conditions)
0.05: HPLC result, RRT 0.86 ([2]; 1 month) | HPLC result, RRT 0.86 ([2]; 2 months) | HPLC result, RRT 0.86 ([2]; 6 months) | HPLC result, RRT 1.05 ([2]; 6 months)
0.18: HPLC result, RRT 1.65 ([2]; 12 months)
99.2: HPLC result, RRT 1 ([2]; 9 months)
0.40: HPLC result, RRT 1.29 ([2]; 2 months)
0.36: HPLC result, RRT 1.29 ([2]; 3 months)
0.07: HPLC result, RRT 0.94 ([2]; 1 month) | HPLC result, RRT 1.09 ([2]; 1 month) | HPLC result, RRT 0.94 ([2]; 2 months) | HPLC result, RRT 0.94 ([2]; 2 weeks) | HPLC result, RRT 1.09 ([2]; 2 weeks) | HPLC result, RRT 1.05 ([2]; 9 months) | HPLC result, RRT 1.15 ([2]; 12 months) | HPLC result, RRT 0.94 ([2]; T0)
99.3: HPLC result, RRT 1 ([2]; 6 months)
99.5: HPLC result, RRT 1 ([2]; 3 months)
little to no change: change in purity over test period (FIG. 20) ([2]; 12 month test period)
0.06: HPLC result, RRT 0.94 ([2]; 6 months) | HPLC result, RRT 1.09 ([2]; 6 months) | HPLC result, RRT 0.94 ([2]; 9 months) | HPLC result, RRT 0.94 ([2]; 12 months) | HPLC result, RRT 0.86 ([2]; T0) | HPLC result, RRT 1.09 ([2]; T0)
0.38: HPLC result, RRT 1.29 ([2]; 1 month) | HPLC result, RRT 1.29 ([2]; 2 weeks)
99.6: HPLC result, RRT 1 ([2]; T0)
0.14: HPLC result, RRT 1.29 ([2]; 12 months)
